PMC7377239, “Cardiovascular Effects of Polychlorinated Biphenyls and Their Major Metabolites” (Environmental Health Perspectives, 2020)
Where two headings read alike, the source gives them in different places.

Tested on: iCell endothelial cells (human iPSC-derived ECs)
Test: High-content imaging cytotoxicity in iCell endothelial cells, 24 h
Assay type: cell-based
Conditions: Homo sapiens, Endothelial cell, iPSC-EC; for viability at 0.1 µM / activity at 0.1 µM: 0.10 µM; for minimal effective concentration: 100.00 = highest concentration tested
In short: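 Human iPSC-derived endothelial cells (passages 1–5) were grown to a fibronectin-coated monolayer, then exposed 24 h at 37 °C with 0.5% DMSO vehicle. Staining was Hoechst 33342, MitoTracker Orange and calcein AM, read by high-content imaging. Point of departure came from 4-parameter logistic fits, with a 1-SD vehicle cutoff and 100 µM as the top concentration.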

[1] = 0.00 µM = 100.00, read-out: endo.cyto.24hr
[2] = 0.00 µM = 100.00, read-out: endo.mito.24hr
[3] = 0.00 µM = 100.00, read-out: endo.mitoint.24hr
[4] = 0.00 µM = 100.00, read-out: endo.nma.24hr
[5] = 0.00 µM = 100.00, read-out: endo.tc.24hrs
[6] = read-out: endo.mitoint.24hr POD

Compound	viability at 0.01 µM [1]	activity at 0.01 µM [2]	activity at 0.01 µM [3]	activity at 0.01 µM [4]	viability at 0.01 µM [5]	viability at 0.1 µM [1]	activity at 0.1 µM [2]	activity at 0.1 µM [3]	activity at 0.1 µM [4]	viability at 0.1 µM [5]	viability at 1 µM [1]	activity at 1 µM [2]	activity at 1 µM [3]	activity at 1 µM [4]	viability at 1 µM [5]	viability at 10 µM [1]	activity at 10 µM [2]	activity at 10 µM [3]	activity at 10 µM [4]	viability at 10 µM [5]	also measured
Clc1ccc(Cl)c(-c2c(Cl)ccc(Cl)c2Cl)c1 [PCB95]	96.8%	96.7%	93.2%	103%	96.8%	102%	102%	87.2%	104%	102%	105%	106%	84.4%	98.6%	105%	104%	104%	93.9%	100%	104%	viability at 100 µM [1]: 102%; activity at 100 µM [2]: 103%; activity at 100 µM [3]: 93.6%; activity at 100 µM [4]: 97.4%; viability at 100 µM [5]: 102%; minimal effective concentration (read-out: endo.cyto.24hr POD): 100 µM; minimal effective concentration (read-out: endo.mito.24hr POD): 100 µM; minimal effective concentration [6]: 100 µM; minimal effective concentration (read-out: endo.nma.24hr POD): 100 µM; minimal effective concentration (read-out: endo.tc.24hrs POD): 100 µM
Clc1ccc(-c2cc(Cl)c(Cl)c(Cl)c2)cc1Cl [PCB126]	100%	99.1%	79.8%	97.4%	100%	95%	95.2%	106%	97.8%	95%	93.4%	93.4%	100%	101%	93.4%	87.7%	87.6%	110%	103%	87.7%	viability at 100 µM [1]: 75.3%; activity at 100 µM [2]: 74.9%; activity at 100 µM [3]: 151%; activity at 100 µM [4]: 98.8%; viability at 100 µM [5]: 76.9%; minimal effective concentration (read-out: endo.cyto.24hr POD): 0.33 µM; minimal effective concentration (read-out: endo.mito.24hr POD): 0.33 µM; minimal effective concentration [6]: 10.2 µM; minimal effective concentration (read-out: endo.nma.24hr POD): 100 µM; minimal effective concentration (read-out: endo.tc.24hrs POD): 0.34 µM
Clc1cc(Cl)c(-c2cc(Cl)c(Cl)cc2Cl)cc1Cl [PCB153]	97.6%	97.9%	86%	102%	97.6%	97.8%	98.2%	85.5%	101%	97.8%	103%	103%	84.3%	100%	103%	109%	110%	80.5%	98%	109%	viability at 100 µM [1]: 45.5%; activity at 100 µM [2]: 42%; activity at 100 µM [3]: 57.6%; activity at 100 µM [4]: 108%; viability at 100 µM [5]: 46.4%; minimal effective concentration (read-out: endo.cyto.24hr POD): 18.6 µM; minimal effective concentration (read-out: endo.mito.24hr POD): 18.6 µM; minimal effective concentration [6]: 0.07 µM; minimal effective concentration (read-out: endo.nma.24hr POD): 62.5 µM; minimal effective concentration (read-out: endo.tc.24hrs POD): 49.2 µM
